The subject of data set [1] is Puccinia recondita f. sp. tritici. The data set is described as follows: Puccinia recondita f. sp. tritici / wheat / leaf disc preventative (brown rust). The data set is classed as in vivo. Conditions: foliar, wheat leaf segments cv. Kanzler, inoculated 1 day after application, assessed 7-9 days after application, read-out: control of Puccinia recondita f. sp. tritici compared to untreated control. A digest of the protocol: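 Wheat leaf segments (cv. Kanzler) on water agar sprayed with compound diluted from DMSO stock in water/0.025% Tween20, then inoculated with P. recondita spores 1 day later. Incubated at 19 °C, 75% rh, 12 h light/dark. Percent disease control versus untreated assessed 7-9 days after application.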

For a further data set, the system named is Uromyces viciae-fabae. The experiment in a line: Uromyces viciae-fabae / field bean / leaf disc preventative (faba-bean rust). The data set is classed as in vivo. The conditions noted are these: foliar, 288 h, 100 ppm in the applied formulation, field bean leaf discs, inoculated two hours after application, 12 days after application, read-out: disease control compared to untreated control leaf discs. In a few lines: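 Preventative test: field bean leaf discs on water agar received compound in acetone with spreader, then were spray-inoculated with rust spores on the lower surface 2 h later. Discs were kept at 22 °C, 18 h day, 70% RH, with percent disease control versus untreated assessed 12 days after application.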

The subject of data set [2] is Puccinia recondita f. sp. tritici. The data set is described as follows: Puccinia recondita f. sp. tritici / wheat / leaf disc curative (brown rust). The conditions noted are these: foliar, wheat leaf segments cv. Kanzler, applied 1 day after inoculation, assessed 6-8 days after application, read-out: control of Puccinia recondita f. sp. tritici compared to untreated control. The data set is classed as in vivo. A digest of the protocol:
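Wheat cv. Kanzler leaf segments on agar, inoculated with brown rust spores and kept dark at 19 °C, 75% rh; formulated compound sprayed 1 day after inoculation (curative). Incubated 19 °C, 75% rh, 12 h light/dark; percent disease control vs untreated scored 6–8 days after application.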

The subject of the next data set is Phakopsora pachyrhizi. The experiment in a line: Phakopsora pachyrhizi / soybean / leaf disc preventative (Asian soybean rust). The conditions noted are these: foliar, soybean leaf disks, inoculated one day after application, assessed 12-14 days after application, read-out: control of Phakopsora pachyrhizi compared to untreated control. In kind it is in vivo. A digest of the protocol: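 Soybean leaf discs on water agar sprayed with formulated compound diluted in water; spore suspension sprayed on lower surface 1 day later. Kept 24-36 h dark at 20° C, 75% rh, then 12 h light/12 h dark. Percent disease control versus untreated scored 12-14 days after application.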

In data set [3] the test system is Glomerella lagenarium (Colletotrichum lagenarium). The data set is described as follows: Glomerella lagenarium (Colletotrichum lagenarium) liquid culture / cucumber / preventative (anthracnose). In kind it is cell-based. Conditions: Colletotrichum orbiculare, liquid culture in PDB, 24° C., 3-4 days after application, read-out: control of Glomerella lagenarium compared to untreated control (inhibition of growth, photometric). In a few lines: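 Conidia from cryogenic storage mixed into potato dextrose broth and added to compound diluted from DMSO stock with 0.025% Tween20. Incubated at 24 °C; growth inhibition read photometrically 3–4 days after application, as percent antifungal activity versus untreated check.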

The structures appear in SMILES notation.

Regarding `CONC(=O)c1ccc(-c2noc(C(F)(F)F)n2)cc1F` [Compound 1.1, 2-fluoro-N-methoxy-4-[5-(trifluoromethyl)-1,2,4-oxadiazol-3-yl]benzamide], the melting point was in the range of 122 to 125 °C. For the same compound, in data set [1], the pest or weed control at 200 ppm was at least 80%. The pest or weed control at 100 ppm with Uromyces viciae-fabae is at least 80%. For the same compound, in data set [2], the pest or weed control at 200 ppm was at least 80%. Besides, the pest or weed control at 200 ppm in the data set with Phakopsora pachyrhizi was at least 80%. For the same compound, the inhibition at 20 ppm in data set [3] was at least 80%.

`CON(C(=O)c1ccc(-c2noc(C(F)(F)F)n2)cc1F)C(C)Cc1c(Cl)cc(Cl)cc1Cl` (stereo not shown) [Compound 1.4, 2-fluoro-N-methoxy-N-[1-methyl-2-(2,4,6-trichlorophenyl)ethyl]-4-[5-(trifluoromethyl)-1,2,4-oxadiazol-3-yl]benzamide] registered a melting point of 83.5 to 86.2 °C. The pest or weed control at 100 ppm in the data set on Uromyces viciae-fabae was at least 80%.

For `CC(CC#N)ONC(=O)c1ccc(-c2noc(C(F)(F)F)n2)cc1F` (stereo not shown) [Compound 1.11, N-(2-cyano-1-methyl-ethoxy)-2-fluoro-4-[5-(trifluoromethyl)-1,2,4-oxadiazol-3-yl]benzamide], the melting point lay in the range of 85.8 to 88 °C. The pest or weed control at 200 ppm in data set [1] was at least 80%. The pest or weed control at 100 ppm in the data set with Uromyces viciae-fabae is at least 80%. The pest or weed control at 200 ppm in data set [2] is at least 80%. The pest or weed control at 200 ppm in the data set with Phakopsora pachyrhizi was at least 80%. For the same compound, the inhibition at 20 ppm in data set [3] was at least 80%.

In the case of `CON(C)C(=O)Cc1ccc(-c2noc(C(F)(F)F)n2)cc1F` [Compound 1.19, 2-[2-fluoro-4-[5-(trifluoromethyl)-1,2,4-oxadiazol-3-yl]phenyl]-N-methoxy-N-methyl-acetamide], the melting point is 104 to 106 °C. Besides, the pest or weed control at 200 ppm in data set [1] is at least 80%. In addition, the pest or weed control at 200 ppm in data set [2] is at least 80%. Further, in the data set with Phakopsora pachyrhizi, the pest or weed control at 200 ppm is at least 80%. The inhibition at 20 ppm in data set [3] was at least 80%.

With `CCONC(=O)Cc1ccc(-c2noc(C(F)(F)F)n2)c(F)c1` [Compound 1.22, N-ethoxy-2-[3-fluoro-4-[5-(trifluoromethyl)-1,2,4-oxadiazol-3-yl]phenyl]acetamide], the melting point fell in the range of 150 to 152 °C. For the same compound, in data set [1], the pest or weed control at 200 ppm was at least 80%. Moreover, the pest or weed control at 200 ppm in data set [2] is at least 80%. Further, in the data set on Phakopsora pachyrhizi, the pest or weed control at 200 ppm is at least 80%. Moreover, the inhibition at 20 ppm in data set [3] was at least 80%.

As for `O=C(c1ccc(-c2noc(C(F)(F)F)n2)cc1F)N1CCCO1` [Compound 1.26, [2-fluoro-4-[5-(trifluoromethyl)-1,2,4-oxadiazol-3-yl]phenyl]-isoxazolidin-2-yl-methanone], the melting point fell in the range of 60.3 to 62.4 °C. Moreover, the pest or weed control at 200 ppm in data set [1] was at least 80%. In addition, the pest or weed control at 100 ppm with Uromyces viciae-fabae was at least 80%. Besides, the pest or weed control at 200 ppm in data set [2] was at least 80%. Also, the inhibition at 20 ppm in data set [3] is at least 80%.

In turn, `O=C(c1ccc(-c2noc(C(F)(F)F)n2)cc1F)N1CCCCO1` [Compound 1.27, [2-fluoro-4-[5-(trifluoromethyl)-1,2,4-oxadiazol-3-yl]phenyl]-(oxazinan-2-yl)methanone] returned a melting point of 57.3 to 59.4 °C. Moreover, in data set [1], the pest or weed control at 200 ppm was at least 80%. Further, the pest or weed control at 100 ppm with Uromyces viciae-fabae is at least 80%. The pest or weed control at 200 ppm in data set [2] is at least 80%. Besides, the pest or weed control at 200 ppm in the data set with Phakopsora pachyrhizi is at least 80%. In data set [3], the inhibition at 20 ppm is at least 80%.

In turn, `C#CCONC(=O)c1ccc(-c2noc(C(F)(F)F)n2)cc1` [Compound 2.11, N-prop-2-ynoxy-4-[5-(trifluoromethyl)-1,2,4-oxadiazol-3-yl]benzamide] showed a melting point of 167 to 169 °C. The pest or weed control at 200 ppm in data set [1] was at least 80%. Also, the pest or weed control at 100 ppm in the data set on Uromyces viciae-fabae is at least 80%. In addition, in data set [2], the pest or weed control at 200 ppm is at least 80%. In addition, the pest or weed control at 200 ppm in the data set with Phakopsora pachyrhizi was at least 80%. Also, in data set [3], the inhibition at 20 ppm was at least 80%.

On to `C=CCONC(=O)c1ccc(-c2noc(C(F)(F)F)n2)cc1` [Compound 2.12, N-allyloxy-4-[5-(trifluoromethyl)-1,2,4-oxadiazol-3-yl]benzamide], for which the melting point fell in the range of 134 to 135 °C. The pest or weed control at 200 ppm in data set [1] is at least 80%. Moreover, the pest or weed control at 100 ppm with Uromyces viciae-fabae was at least 80%. In data set [2], the pest or weed control at 200 ppm was at least 80%. Also, in the data set on Phakopsora pachyrhizi, the pest or weed control at 200 ppm is at least 80%. The inhibition at 20 ppm in data set [3] is at least 80%.

`CONC(=O)Cc1ccc(-c2noc(C(F)(F)F)n2)cc1` [Compound 2.13, N-methoxy-2-[4-[5-(trifluoromethyl)-1,2,4-oxadiazol-3-yl]phenyl]acetamide]: the melting point lay within 131 to 138 °C. Moreover, in data set [1], the pest or weed control at 200 ppm was at least 80%. Moreover, the pest or weed control at 200 ppm in data set [2] is at least 80%. In the data set on Phakopsora pachyrhizi, the pest or weed control at 200 ppm was at least 80%. The inhibition at 20 ppm in data set [3] was at least 80%.

In turn, `CCONC(=O)Cc1ccc(-c2noc(C(F)(F)F)n2)cc1` [Compound 2.16, N-ethoxy-2-[4-[5-(trifluoromethyl)-1,2,4-oxadiazol-3-yl]phenyl]acetamide] gave a melting point of 171 to 183 °C. Besides, the pest or weed control at 200 ppm in data set [1] is at least 80%. Further, the pest or weed control at 200 ppm in data set [2] is at least 80%. Also, the pest or weed control at 200 ppm with Phakopsora pachyrhizi is at least 80%. Also, in data set [3], the inhibition at 20 ppm is at least 80%.

The compound `O=C(Cc1ccc(-c2noc(C(F)(F)F)n2)cc1)NOCC(F)F` [Compound 2.17, N-(2,2-difluoroethoxy)-2-[4-[5-(trifluoromethyl)-1,2,4-oxadiazol-3-yl]phenyl]acetamide] registered a melting point of 140 to 146 °C. In data set [1], the pest or weed control at 200 ppm was at least 80%. Also, the pest or weed control at 200 ppm in data set [2] is at least 80%. Further, the pest or weed control at 200 ppm with Phakopsora pachyrhizi is at least 80%. Also, the inhibition at 20 ppm in data set [3] is at least 80%.

In turn, `O=C(c1ccc(-c2noc(C(F)(F)F)n2)cc1)N1OC2C=CC1CC2` (stereo not shown) [Compound 2.23, 2-oxa-3-azabicyclo[2.2.2]oct-5-en-3-yl-[4-[5-(trifluoromethyl)-1,2,4-oxadiazol-3-yl]phenyl]methanone] registered a melting point of 89 °C. In addition, in data set [1], the pest or weed control at 200 ppm is at least 80%. In addition, the pest or weed control at 100 ppm in the data set with Uromyces viciae-fabae is at least 80%. Moreover, in data set [2], the pest or weed control at 200 ppm was at least 80%. Moreover, the pest or weed control at 200 ppm with Phakopsora pachyrhizi is at least 80%. Also, in data set [3], the inhibition at 20 ppm is at least 80%.

`O=C(c1ccc(-c2noc(C(F)(F)F)n2)cc1)N1OC2CCC1CC2` [Compound 2.24, 2-oxa-3-azabicyclo[2.2.2]octan-3-yl-[4-[5-(trifluoromethyl)-1,2,4-oxadiazol-3-yl]phenyl]methanone] returned a melting point of 120 to 121 °C. In addition, the pest or weed control at 100 ppm in the data set on Uromyces viciae-fabae was at least 80%. Also, the pest or weed control at 200 ppm in data set [2] was at least 80%. For the same compound, the pest or weed control at 200 ppm with Phakopsora pachyrhizi is at least 80%. In addition, in data set [3], the inhibition at 20 ppm is at least 80%.

The melting point is the temperature of the solid-liquid transition. As usually defined, the inhibition is the change of the read-out against control, counted positive when it falls.

(Values after patent publication US11154060B2, “Microbiocidal oxadiazole derivatives” (SYNGENTA PARTICIPATIONS AG, priority 2016, dated 2021).)
